Series [1] can be described thus: Renal tolerance of vancomycin regimen (serum creatinine). It counts as in vivo, New Zealand White rabbits. The protocol: Creatinine serum concentrations were measured in group A animals using a Fuji Dri-Chem analyzer (Fujifilm Corporation, Tokyo, Japan) with CRE-PIII slides, as per the manufacturer’s instructions.
The next series concerns MRSA strain ATCC 33591. It counts as in vivo, New Zealand White rabbits. The settings on record: surgical debridement at day 7 followed by 50 mg/kg IV vancomycin twice a day for 7 days, N = 5.
The test system of series [2] is Methicillin-Resistant Staphylococcus aureus strain ATCC 33591. The settings on record: MRSA ATCC 33591; determined previously; cited from earlier work. The procedure:
The Methicillin-Resistant Staphylococcus aureus strain ATCC 33591, previously used in our laboratory for biofilms models, was used. […] Bacteria were grown overnight on tryptic soy agar (TSA) plates from frozen stock. Some colonies were then suspended in sterile PBS, adjusted to an OD620 nm of 0.5 (∼8 log10 CFU), and diluted 1:10 in PBS. The bacterial suspension was stored at 4°C until inoculation (1.5–2 h). Serial dilutions of the bacterial inoculum were plated on TSA to confirm the bacterial inoculum.

Series [3] can be described thus: Vancomycin serum pharmacokinetics and therapeutic monitoring in rabbits. The settings on record: 50 mg/kg IV every 12 h, Roche VANC3 assay.

Converted amounts (≈) assume the structure as drawn. Some results are limits rather than exact numbers.

Description for MRSA strain ATCC 33591: Following general anesthesia, the animals were installed in a Class II biosafety cabinet. The operated leg was disinfected twice with 2% chlorhexidine gluconate alcohol solution (Qualiphar, Bornem, Belgium) and the leg was sterile draped. The joint was approached through a medial parapatellar incision. The medial meniscus was resected and 5 mm of the medial tibial plateau was removed using a high-speed burr. The cut height was confirmed using a spacer block. The bone surface was then further prepared using a custom tibial punch. After irrigation of the joint space with sterile saline, the final implants were impacted. The joint was then further irrigated with sterile saline. The joint capsule, subcutaneous tissues, and skin were closed separately with running sutures using a 3/0 polyester thread. The joints of groups B and C animals were inoculated by intra-articular injection of 100 μl of a 6.5 log10 CFU/ml MRSA suspension after the closure of the subcutaneous tissues. […] The wounds were then covered using an antiseptic spray and dressed.
Animals of groups C were operated on 1 week after the initial surgery. Following anesthesia, the operated leg was disinfected twice with 2% chlorhexidine gluconate alcohol solution and the leg was draped. The initial approach was re-used. Pus samples were collected immediately after the capsule was breached and stored on ice until analyzed. […]

The term MIC denotes the lowest concentration that inhibits growth of the organism. As to `CN[C@H](CC(C)C)C(=O)N[C@H]1C(=O)N[C@@H](CC(N)=O)C(=O)N[C@H]2C(=O)N[C@H]3C(=O)N[C@H](C(=O)N[C@H](C(=O)O)c4cc(O)cc(O)c4-c4cc3ccc4O)[C@H](O)c3ccc(c(Cl)c3)Oc3cc2cc(c3O[C@@H]2O[C@H](CO)[C@@H](O)[C@H](O)[C@H]2O[C@H]2C[C@](C)(N)[C@H](O)[C@H](C)O2)Oc2ccc(cc2Cl)[C@H]1O` [vancomycin, Vancomycin], the renal toxicity entry in series [1] (NZW rabbits, 50 mg/kg IV vancomycin twice a day) was “No renal toxicity was observed”. Also, the “serum creatinine concentrations throughout the experiment” value in series [1] (group A NZW rabbits, 50 mg/kg IV vancomycin twice a day for 7 days, Fuji Dri-Chem analyzer) is recorded as “stable”. For the same compound, in the series on MRSA strain ATCC 33591 (5.5 log10 CFU MRSA inoculum, p < 0.0001), the “bacterial counts in all samples (bone, pus, implant) except the joint capsule, group C versus group B” value was “significantly reduced”. In addition, the “mean difference in CFU counts in capsule samples, group C versus group B” value with MRSA strain ATCC 33591 (not statistically significant, p = 0.35) came to 0.74 log10 CFU/g. Also, in series [2], the MBEC is greater than 1024 µg/mL and the MIC is 1 µg/mL (≈ 0.69 µM). Further, in series [3] (group A NZW rabbits), the “vancomycin serum concentration 12 h after the injections” value was roughly 0 µg/mL. Besides, in series [3] (group A non-infected NZW rabbits, 1st injection, trapezoid rule, mean, N = 5, SD 15.79), the “AUC0–12 h following the first vancomycin injection” value was found to be 213.0 mg·h/L.

The values are drawn from paper PMC9606572, “Development of an innovative in vivo model of PJI treated with DAIR” (Frontiers in Medicine, 2022).
